{
  "source": "paper PMC11901578",
  "about": "“Polymethoxyflavones and Bone Metabolism” (Nutrients, 2025)",
  "key": {"[1]": {"system": "bone resorption in mouse bone organ cultures", "set-up": "method as in PMID 21258168, PMID 22850615", "details": "60 μM; cited from earlier work"}, "[2]": {"system": "zebrafish embryos", "set-up": "method as in PMID 22707269", "details": "30 μM, cited from earlier work"}, "[3]": {"system": "NF-κB signaling in chondrocytes", "set-up": "method as in PMID 31214026", "details": "10, 20, and 40 μM; cited from earlier work"}, "[4]": {"system": "human osteoblastic cell line MG-63", "set-up": "method as in PMID 34466066", "details": "10 and 20 μg/mL (approximately 25 and 50 μM); cited from earlier work"}, "[5]": {"system": "human OA chondrocytes", "set-up": "method as in PMID 30938722", "details": "IL-1-stimulated human OA chondrocytes; cited from earlier work"}, "[6]": {"system": "IKKβ", "set-up": "method as in PMID 21258168, PMID 22850615", "details": "in vitro kinase assay; cited from earlier work"}, "[7]": {"target": "estrogen receptor-α (Homo sapiens, UniProt P03372)", "sequence (P03372 whole entry)": "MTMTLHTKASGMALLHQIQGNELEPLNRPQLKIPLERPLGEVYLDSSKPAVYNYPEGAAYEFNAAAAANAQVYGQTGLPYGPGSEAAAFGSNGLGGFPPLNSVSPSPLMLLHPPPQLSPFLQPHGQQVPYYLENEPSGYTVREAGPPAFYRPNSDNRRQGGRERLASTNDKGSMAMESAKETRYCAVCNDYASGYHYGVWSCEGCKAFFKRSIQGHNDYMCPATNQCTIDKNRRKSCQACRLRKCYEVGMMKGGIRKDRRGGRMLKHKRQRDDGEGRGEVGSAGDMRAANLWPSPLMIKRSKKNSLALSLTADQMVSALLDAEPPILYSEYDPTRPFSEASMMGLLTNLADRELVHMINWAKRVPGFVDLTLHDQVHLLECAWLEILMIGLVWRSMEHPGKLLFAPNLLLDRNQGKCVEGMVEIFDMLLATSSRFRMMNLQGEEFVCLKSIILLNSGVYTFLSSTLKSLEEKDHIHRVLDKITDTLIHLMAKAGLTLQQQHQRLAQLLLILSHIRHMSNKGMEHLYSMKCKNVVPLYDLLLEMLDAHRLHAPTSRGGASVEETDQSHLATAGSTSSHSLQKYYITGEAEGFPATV", "test": "Estrogen receptor-binding assay", "details": "unpublished data", "from_the_text": "(§1) An anticipated adverse effect of long-term flavonoid supplementation is an estrogen-like effect. Although isoflavones, such as genistein and daidzein, have estrogenic effects via binding to estrogen receptors, there are no reports on polymethoxyflavones. […] On the other hand, excessive long-term intake of PMFs may indicate some toxicity, since a high concentration of PMFs may lead to inhibited cell growth or cell death in various cell types, including osteoblasts, endothelial cells, and cancer cell lines."}, "[8]": {"target": "estrogen receptor-β (Homo sapiens, UniProt Q92731)", "sequence (Q92731 whole entry)": "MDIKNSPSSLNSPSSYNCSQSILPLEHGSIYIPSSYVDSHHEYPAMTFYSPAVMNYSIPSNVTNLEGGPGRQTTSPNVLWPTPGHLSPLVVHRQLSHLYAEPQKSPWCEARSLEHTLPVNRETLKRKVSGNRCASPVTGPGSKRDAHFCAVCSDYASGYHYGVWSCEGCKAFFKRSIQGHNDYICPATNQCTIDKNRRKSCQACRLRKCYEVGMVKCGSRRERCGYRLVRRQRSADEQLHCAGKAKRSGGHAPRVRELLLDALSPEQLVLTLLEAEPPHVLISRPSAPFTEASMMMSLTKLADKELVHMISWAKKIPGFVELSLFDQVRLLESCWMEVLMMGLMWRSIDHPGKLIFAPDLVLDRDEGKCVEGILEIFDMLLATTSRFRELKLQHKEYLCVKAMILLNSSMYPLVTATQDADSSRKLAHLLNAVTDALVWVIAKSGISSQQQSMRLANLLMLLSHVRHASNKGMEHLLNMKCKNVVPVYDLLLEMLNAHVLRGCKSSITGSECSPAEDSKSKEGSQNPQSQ", "test": "Estrogen receptor-binding assay", "details": "unpublished data", "from_the_text": "as §1"}, "[9]": {"system": "ovariectomized (OVX) mice", "details": "cited from earlier work"}, "[10]": {"system": "DMM-OA mice", "details": "cited from earlier work"}, "[11]": {"system": "HL-60 cells", "set-up": "method as in PMID 23225422", "details": "read-out: IC50, anti-proliferative effect on HL-60 cells; cited from earlier work"}, "[12]": {"system": "bone resorption in mouse calvarial or alveolar bone organ cultures", "details": "30 μM, bone organ cultures; cited from earlier work"}, "[13]": {"system": "osteoclast differentiation in co-cultures of osteoblasts and bone marrow cells", "details": "cited from earlier work"}, "[14]": {"system": "collagen-induced arthritic mice", "details": "cited from earlier work"}, "[15]": {"system": "human periodontal ligament cells (HPDLCs)", "details": "12.5, 25, 50, and 100 μM, TNF- or IL-1-stimulated HPDLCs; cited from earlier work"}, "[16]": {"system": "Raw264.7", "details": "cited from earlier work"}, "[17]": {"system": "osteoclast differentiation in co-culture system", "details": "30 μM, cited from earlier work"}, "[18]": {"system": "PGE2 production in osteoblasts", "set-up": "method as in PMID 21258168, PMID 22850615", "details": "with downregulation of COX-2; cited from earlier work"}, "[19]": {"system": "bone marrow macrophages (BMMs)", "details": "50 μM; cited from earlier work"}, "[20]": {"system": "human umbilical vein endothelial cells (HUVECs)", "set-up": "method as in PMID 22707269", "details": "read-out: IC50, anti-proliferative effect on HUVECs; cited from earlier work"}, "[21]": {"system": "ectopic bone formation in mice", "set-up": "method as in PMID 36816515", "details": "collagen sponge disk with BMP-2 (1 μg) and nobiletin (2.5 or 5 μg), fascia of back muscle; cited from earlier work"}, "[22]": {"system": "alveolar bone loss in mice", "details": "cited from earlier work; for alveolar bone loss in mice, restored: LPS +; for decrease of alveolar bone mineral density (ABMD): co-injection with LPS (25 μg/mouse/day), three times every other day, LPS alone 9%"}, "[23]": {"system": "MH7A human fibroblast-like synoviocytes (FLS)", "set-up": "method as in PMID 31978425", "details": "50 μM; cited from earlier work"}, "[24]": {"details": "intraperitoneal 50 μM for 9 weeks"}, "[25]": {"details": "intraperitoneal 2 mg/mouse/day (approximately 67 mg/kg) for 4 weeks, Sham mice as 100%"}, "[26]": {"details": "subcutaneous 0.25 mg/day by mini-osmotic pump for 4 weeks"}},
  "note": "pIC50: −log10 of the molar value. Where two headings read alike, the source gives them in different places.",
  "data": [
    {"molecule": "COc1ccc(-c2cc(=O)c3c(OC)c(OC)c(OC)c(OC)c3o2)cc1OC", "note": "[Nobiletin, 3′,4′,5,6,7,8-Hexamethoxyflavone]", "values": [
      {"measurement": "IL-1-induced bone resorption", "setting": "[1]", "value": "completely suppressed"},
      {"measurement": "anti-angiogenic effect on zebrafish embryos, inhibited", "setting": "[2]; listed as nobiletin", "value": "~63", "unit": "%"},
      {"measurement": "anti-angiogenic effect on zebrafish embryos, inhibited", "setting": "[2]", "value": "63% inhibited [47]"},
      {"measurement": "IL-1-induced NF-κB signaling", "setting": "[3]", "value": "inhibited IL-1-induced NF-κB signaling in a dose-dependent manner"},
      {"measurement": "osteoblast differentiation and mineralization", "setting": "[4]", "value": "promoted osteoblast differentiation and mineralization in a dose-dependent manner"},
      {"measurement": "overproduction of inflammatory mediators (PGE2, NO, COX-2, iNOS, TNF-α, IL-6, MMPs)", "setting": "[5]", "value": "significantly suppressed"},
      {"measurement": "IKKβ kinase activity", "setting": "[6]", "value": "directly inhibited"},
      {"measurement": "binding to estrogen receptor-α", "setting": "[7]", "value": "unable to bind"},
      {"measurement": "binding to estrogen receptor-β", "setting": "[8]", "value": "unable to bind"},
      {"measurement": "effect on body weight and the uterus", "setting": "[9]", "value": "without affecting body weight and the uterus"},
      {"measurement": "BMD restored", "setting": "[9]; [24]", "value": 4.5, "unit": "%"},
      {"measurement": "BV/TV restored", "setting": "[9]; [24]", "value": 16, "unit": "%"},
      {"measurement": "trabecular separation (Tb.Sp) restored", "setting": "[9]; [24]", "value": 30, "unit": "%"},
      {"measurement": "bone mineral density (BMD) of the femur restored", "setting": "[9]; [25]", "value": 6, "unit": "%"},
      {"measurement": "bone volume/tissue volume (BV/TV) of the femur restored", "setting": "[9]; [25]", "value": 34, "unit": "%"},
      {"measurement": "trabecular BMD in the distal femur restored", "setting": "[9]; oral 50 and 100 mg/kg for 12 weeks, similar effects at both dosages", "value": 8, "unit": "%"},
      {"measurement": "distal BMD in the femur restored", "setting": "[9]; [26]", "value": 5, "unit": "%"},
      {"measurement": "whole BMD in the femur restored", "setting": "[9]; [26]", "value": 4, "unit": "%"},
      {"measurement": "cartilage destruction and synovitis", "setting": "[10]; DMM-OA mice, intraperitoneal 20 mg/kg every 2 days for 8 weeks", "value": "inhibited cartilage destruction and synovitis"},
      {"measurement": "cartilage destruction and subchondral bone thickening", "setting": "[10]; DMM-OA model mice", "value": "prevented cartilage destruction and thickening of the subchondral bone"},
      {"measurement": "pIC50", "setting": "[11]", "value": 4.28},
      {"measurement": "LPS-induced bone-resorbing activity", "setting": "[12]", "value": "significantly suppressed"},
      {"measurement": "inhibition of IL-1-induced osteoclast differentiation", "setting": "[13]; 10 μM", "value": 20, "unit": "%"},
      {"measurement": "inhibition of IL-1-induced osteoclast differentiation", "setting": "[13]; 30 μM", "value": 85, "unit": "%"},
      {"measurement": "inhibition of IL-1-induced osteoclast differentiation", "setting": "[13]; 60 μM", "value": 100, "unit": "%"},
      {"measurement": "pIC50", "setting": "[13]; IL-1 +, read-out: IC50, osteoclast differentiation in co-culture system", "value": 4.48},
      {"measurement": "gene expression and production of aggrecanase-1 and -2", "setting": "[14]; collagen-induced arthritic mice", "value": "downregulate"},
      {"measurement": "decrease of severity of arthritis", "setting": "[14]; intraperitoneal 15, 30, and 60 mg/kg", "value": 45, "unit": "%"},
      {"measurement": "expression of inflammatory cytokines (CXCL10, CCL2, IL-8), MMP-1, MMP-3, and COX-2", "setting": "[15]", "value": "dose-dependently reduced"},
      {"measurement": "RANKL-induced osteoclast differentiation", "setting": "[16]; 4, 20, and 50 μM, Raw264.7", "value": "suppressed RANKL-induced osteoclast differentiation in a dose-dependent manner"},
      {"measurement": "osteoclast differentiation in Raw264.7 cultures, inhibited", "setting": "[16]; RANKL +, 30 μM", "value": "86% inhibited [8]"},
      {"measurement": "pIC50", "setting": "[16]; RANKL +, read-out: IC50, osteoclast differentiation in Raw264.7 cultures", "value": 5.10},
      {"measurement": "LPS-induced osteoclast differentiation", "setting": "[17]; co-cultures", "value": "significantly suppressed"},
      {"measurement": "osteoclast differentiation in co-culture system, inhibited", "setting": "[17]; LPS +", "value": "70% inhibited [8]"},
      {"measurement": "PGE2 production", "setting": "[18]", "value": "suppressed"},
      {"measurement": "cytotoxicity to bone marrow macrophages (BMMs)", "setting": "[19]", "value": "cytotoxic"},
      {"measurement": "pIC50", "setting": "[20]", "value": 4.21},
      {"measurement": "increase of bone formation (BV/TV) relative to BMP-2 alone", "setting": "[21]", "value": 33, "unit": "%"},
      {"measurement": "alveolar bone loss in mice, restored", "setting": "[22]; 30 μg/mouse", "value": "5% restored [8]"},
      {"measurement": "alveolar bone loss in mice, restored", "setting": "[22]; 100 μg/mouse", "value": "6% restored [8]"},
      {"measurement": "alveolar bone loss in mice, restored", "setting": "[22]; 300 μg/mouse", "value": "9% restored [8]"},
      {"measurement": "decrease of alveolar bone mineral density (ABMD)", "setting": "[22]; 3 μg/mouse/day", "value": 3, "unit": "%"},
      {"measurement": "decrease of alveolar bone mineral density (ABMD)", "setting": "[22]; 100 μg/mouse/day", "value": 4, "unit": "%"},
      {"measurement": "decrease of alveolar bone mineral density (ABMD)", "setting": "[22]; 300 μg/mouse/day", "value": 1, "unit": "%"},
      {"measurement": "IL-21-mediated inflammatory response", "setting": "[23]", "value": "suppressed"}
    ]}
  ]
}
